Reference: US9463338B2, “Derivatives of the sinapinic acid” (PHARMASYNTHESE, priority 2013, dated 2016)
Where “and” joins values, the source holds several entries; their conditions need not be identical. Identical values can stand only once. Marks after values point to notes of the source that are not given here.

Key:
[1] = tested on: explants of adipose tissues; test: Slimming effect: glycerol released in culture medium of adipose tissue explants; assay type: cell-based, human
Method: The activity of the compounds of the invention on the adipocytes has been assessed. To do so, tests have been carried out on explants of adipose tissues that are kept alive according to the following experimental protocol. The products to be tested are introduced in the culture medium. After 9 days of treatment, the activity is assessed through an assay of the glycerol released in the culture medium. In order to be able to compare the potential activity of the molecules, caffeine (Sigma ref C-0750 batch 127F0396), which is known for its activity on the adipocytes (Studlar M. […] The explants are prepared from a tummy tuck ([…]-AB-40) carried out on a donor. 54 explants of tissues have been prepared and kept alive in a medium which is supplemented with penicillin/streptomycin antibiotics (Gibco ref 15140 batch 918578) at 37° C. and with 5% of CO2. The treatment has been carried out, on 3 explants, by incorporating 100 μl of the product (which is in turn at a 2% concentration in the adequate solvent, DMSO) in 2 ml of the culture medium on days J0, J2, J3, J5 and J7. Caffeine has been diluted to the desired concentration in the culture medium on these same days. The control explants have undergone no treatment. On J0, the 3 explants have been collected and frozen at -80° C. On J9, the remaining explants have been collected and preserved under the same conditions. The extraction of lipids from the culture medium has been carried out according to a tested procedure. The assay of the glycerol of the culture medium has been carried out using a glycerol assay kit (Megazyme, K-GROL) in the form of 96-well microplates and reading has been made at 340 nm with a Tecam Infinite M200 microplate reader associated to the Magellan software.

[2] = tested on: normal human dermal fibroblasts; test: Production of type I pro-collagen in monolayer cultures of normal human dermal fibroblasts (E.I.A.); assay type: cell-based; conditions: 48 hours; for Procollagen Difference (%): vs DMSO
Method: (§1) The test system consists of monolayers of adult normal human dermal fibroblasts obtained by cultivating cells collected from a tummy tuck carried out on a person.
The used reference activator is the Transforming Growth Factor β (TGF-β) at 1 ng/ml. […]
(§2) The compound to be tested is solubilized in 1 mg/ml in DMSO, then diluted in the cells incubation medium, with a constant concentration of 0.1% (v/v) in DMSO.
Upon completion of the incubation period, the type I pro-collagen contained in the fibroblasts incubation media has been quantified using a sensitive and specific E.I.A. kit.
Upon completion of the incubation period, the proteins contained in the cellular lysates have been quantified by a spectrophotometric method (Bradford method—Bradford M. (1976) Anal. Biochem., 72, 248-254).
(§3) The statistical significance of the differences that have been observed between the <<Control>> and the <<reference product>> conditions, has been assessed through a Student test. The statistical significance of the differences that have been observed between the <<Check>> and the <<test products>> conditions, has been assessed through a one-way analysis of variance (One Way ANOVA) followed by a Holm-Sidak test (*:p<0.05).
The results are given in the form of μg of type I pro-collagen per mg of protein (average+/− the standard deviation, S.D.) and are reported in the following Table 5.

[3] = tested on: normal human melanocytes; test: Melanin production of normal human melanocytes (conditioned fibroblast media); assay type: cell-based; conditions: for Melanin/Proteins, individual values: conditioned medium 1/10th on melanocytes 72 hours; for Melanin/Proteins % DMSO / Melanin/Proteins Average: conditioned fibroblast medium, melanocytes 72 hours; for Melanin/Proteins Difference (%): vs DMSO 0.01%
Source text: These experiments allowed to show the capability of the compounds of the invention to modulate the melanin production of normal human melanocytes cultivated in D.K.K. fibroblast monolayers.
Monolayers of normal human dermal fibroblasts have been obtained by cultivating cells collected from a tummy tuck carried out on a person. For carrying out the tests, these cells have been cultivated until obtaining confluent monolayers. Monolayers of normal human melanocytes have been obtained by cultivating cells collected from a tummy tuck carried out on a person. For carrying out the tests, these cells have been cultivated until obtaining non-confluent monolayers. […]
Afterwards, the melanocytes have been incubated for 72 hours at 37° C. in a humid atmosphere with 5% of CO2, in the absence (culture medium alone) or in the presence of kojic acid at 250 μM or of conditioned fibroblast media (see above) diluted to 1/10th in the culture medium of the melanocytes.
The active ingredient has been solubilized in DMSO (Dimethyl Sulfoxide). Afterwards, the dilutions have been carried out in the cells incubation medium with a constant concentration of 0.01% (v/v) of DMSO.
Upon completion of the incubation period, the intracellular melanin content has been quantified in the melanocytic lysates by a spectrophotometric measurement at 405 nm.
Upon completion of the incubation period, the proteins contained in the cellular lysates have been quantified by a spectrophotometric method (Bradford method).
The results are given in the form of μg of intracellular melanin per mg of total proteins of the cellular layer (averages+/− the standard deviation, S.D.).
The statistical significance of the differences observed between the <<Control>> and the <<test product>> conditions, has been assessed through a one-way analysis of variance (One Way ANOVA) followed by a Holm-Sidak test (*:p<0.05).

[4] = tested on: normal human dermal fibroblasts; test: Production of progerin in monolayer cultures of normal human dermal fibroblasts (ELISA); assay type: cell-based; conditions: for Progerin % DMSO / Progerin Average / Progerin, individual values / Progerin Difference (%): 96 hours; for Progerin Difference (%): vs DMSO
Source text: In order to study the influence of the compounds of the invention on the concentration of progerin in the cells, the assay method described by C. Verdy, J.-E. Branka and N. Mekideche in <<Quantitative assessment of lactate and progerine production in normal human cutaneous cells during normal ageing: effect of an alaria esculenta extract>>, Int. J. Cosmetic Science, 2011, 1-5, has been used.
as §1
Insulin at 10 nM has been used as a reference product in this study. […]
as §2
Upon completion of the incubation period, on the one hand, the progerin has been quantified in the cellular lysates (obtained by ultrasonic action) through a sensitive and specific ELISA assay, and on the other hand, the proteins that are contained in the cellular lysates have been quantified by a spectrophotometric method (Bradford method—Bradford M. (1976) Anal. Biochem., 72, 248-254).
as §3

COc1cc(/C=C/C(=O)OCCc2ccc(OC(C)=O)cc2)cc(OC)c1OC(C)=O [Compound 1, 4-acetoxy-3,5-dimethoxy cinnamate of 2-(4-acetoxyphenyl)-ethyl]
melting point: 132 °C

CCCCCCCCCCCCCCCCOC(=O)/C=C/c1cc(OC)c(OC(C)=O)c(OC)c1 [Compound 4, 4-acetoxy-3,5-dimethoxy cinnamate of n-hexadecyl]
melting point: 82 °C

COc1cc(COC(=O)/C=C/c2cc(OC)c(OC(C)=O)c(OC)c2)cc(OC)c1OC [Compound 5]
Glycerol % in comparison with caffeine ([1]; after 9 days of treatment): 82% | slimming activity in comparison with caffeine ([1]; after 9 days of treatment): enhanced slimming activity | Glycerol Average ([1]; glycerol released in culture medium after 9 days, 100 μl of 2% product in DMSO in 2 ml medium on J0, J2, J3, J5, J7, 3 explants): 0.083 mg/mL | Procollagen % DMSO ([2]; 10 ng/ml): 75.7% | Procollagen Average ([2]; 10 ng/ml): 39.7* pg/mg of protein | Procollagen, individual values ([2]; 10 ng/ml): 45.3 pg/mg of protein and 37.0 pg/mg of protein and 36.8 pg/mg of protein | Procollagen Difference (%) ([2]; 10 ng/ml): −24.3% | Procollagen % DMSO ([2]; 100 ng/ml): 96.3% | Procollagen Average ([2]; 100 ng/ml): 50.5 pg/mg of protein | Procollagen, individual values ([2]; 100 ng/ml): 53.0 pg/mg of protein and 52.3 pg/mg of protein and 46.3 pg/mg of protein | Procollagen Difference (%) ([2]; 100 ng/ml): −3.7% | Procollagen % DMSO ([2]; 500 ng/ml): 126.9% | Procollagen Average ([2]; 500 ng/ml): 66.6* pg/mg of protein | Procollagen, individual values ([2]; 500 ng/ml): 66.1 pg/mg of protein and 62.3 pg/mg of protein and 71.4 pg/mg of protein | Procollagen Difference (%) ([2]; 500 ng/ml): 26.9% | synthesis of melanin in the melanocytes [3]: significantly decrease | Melanin/Proteins, individual values ([3]; 10 ng/ml on fibroblasts 48 hours): 14.2 µg/mg and 11.7 µg/mg and 13.7 µg/mg | Melanin/Proteins % DMSO ([3]; 10 ng/ml): 83.0% | Melanin/Proteins Average ([3]; 10 ng/ml): 14.3* μg/mg | Melanin/Proteins Difference (%) ([3]; 10 ng/ml): −17.0% | Melanin/Proteins, individual values ([3]; 50 ng/ml on fibroblasts 48 hours): 14.3 μg/mg and 14.7 μg/mg (2×) | Melanin/Proteins % DMSO ([3]; 50 ng/ml): 83.6% | Melanin/Proteins Average ([3]; 50 ng/ml): 14.4* μg/mg | Melanin/Proteins Difference (%) ([3]; 50 ng/ml): −16.4% | Melanin/Proteins, individual values ([3]; 100 ng/ml on fibroblasts 48 hours): 15.8 µg/mg and 16.7 µg/mg and 16.0 µg/mg | Melanin/Proteins % DMSO ([3]; 100 ng/ml): 93.7% | Melanin/Proteins Average ([3]; 100 ng/ml): 16.2 µg/mg | Melanin/Proteins Difference (%) ([3]; 100 ng/ml): −6.3% | Progerin % DMSO ([4]; 10 ng/ml): 27.6% | Progerin Average ([4]; 10 ng/ml): 306.4* ng/mg of protein | Progerin, individual values ([4]; 10 ng/ml): 284.0 ng/mg of protein and 243.7 ng/mg of protein and 391.4 ng/mg of protein | Progerin Difference (%) ([4]; 10 ng/ml): −72.4% | Progerin % DMSO ([4]; 100 ng/ml): 29.1% | Progerin Average ([4]; 100 ng/ml): 322.9* ng/mg of protein | Progerin, individual values ([4]; 100 ng/ml): 206.0 ng/mg of protein and 364.1 ng/mg of protein and 398.6 ng/mg of protein | Progerin Difference (%) ([4]; 100 ng/ml): −70.9% | Progerin % DMSO ([4]; 500 ng/ml): 77.9% | Progerin Average ([4]; 500 ng/ml): 865.0 ng/mg of protein | Progerin, individual values ([4]; 500 ng/ml): 916.2 ng/mg of protein and 1021.7 ng/mg of protein and 657.0 ng/mg of protein | Progerin Difference (%) ([4]; 500 ng/ml): −22.1% | neo synthesis of progerin ([4]; under the retained experimental conditions): significantly decrease

COc1cc(/C=C/C(=O)Oc2cc(C)ccc2C(C)C)cc(OC)c1OC(C)=O [Compound 8, 4-acetoxy-3,5-dimethoxy cinnamate of 2-isopropyl-5-methyl phenyl]
melting point: 143 °C

COc1cc(/C=C/C(=O)Nc2ccccc2)cc(OC)c1OC(C)=O [Compound 19, 4-acetoxy-3,5-dimethoxy-N-(phenyl)-cinnamamide]
melting point: 100 °C
